Results on 1 molecule are retold here after PMC8436411 (ACS Medicinal Chemistry Letters, 2021).

One test addresses T1, S. aureus topoIV (Staphylococcus aureus, UniProt Q2FYS4).
T1 construct: purchased Inspiralis (Norwich, UK)
The experiment in a line: TopoIV decatenation inhibition assay (S. aureus). In kind it is biochemical. The settings on record: read-out: IC50 TopoIV S. aureus, mean of two independent measurements ± SD.

In test [1] the test system is E. coli N43 (CGSC no. 5583). Description: microbe, parasite or virus in culture. The settings on record: Escherichia coli. As to the method: (§1) The in vitro antibacterial activity, expressed as minimum inhibitory concentration (MIC), was determined against broad spectrum of bacteria, including Gram-positive (Staphylococcus aureus, methicillin-resistant Staphylococcus aureus, Streptococcus agalactiae, and Enterococcus faecalis) and Gram-negative strains (Escherichia coli, Salmonella alachua, Pseudomonas aeruginosa, and Klebsiella pneumoniae), enriched with various MRSA strains resistant to various antibiotics as well as E. coli strains with increased membrane permeability and lack of efflux pump, as well. […]
(§2) The minimum inhibitory concentrations (MICs) were determined using the broth micro-dilution method in 96-well plate format according to the Clinical and Laboratory Standards Institute […]
(§3) guidelines8 and European Committee on Antimicrobial Susceptibility Testing recommendations9. The bacterial suspension of the specific bacterial strain equivalent to the 0.5 McFarland turbidity standard was diluted with cation-adapted Mueller Hinton broth with TES (Thermo Fisher Scientific) to obtain a […]
(§4) The compounds dissolved in DMSO and inoculum were mixed together and incubated for 20 h at 35 °C.

The subject of test [2] is Salmonella alachua RDK 030c (QA-1482/04). The experiment in a line: microbe, parasite or virus in culture. As to the method:
as §1, §2, §3, §4

The next test relates to MRSA (QA-11.7). Description: microbe, parasite or virus in culture. The settings on record: Staphylococcus aureus, read-out: MIC MRSA (QA-11.7). The protocol:
as §1, §2, §3, §4

Another test concerns S. aureus (ATCC 29213). Description: microbe, parasite or virus in culture. The conditions noted are these: Staphylococcus aureus, ATCC29213, read-out: MIC S. aureus (ATCC 29213). The protocol:
as §1, §2, §3, §4

A further test concerns E. coli (ATCC 25922). Description: microbe, parasite or virus in culture. The settings on record: Escherichia coli, ATCC25922, read-out: MIC E. coli (ATCC 25922). The protocol:
as §1, §2, §3, §4

Test [3] concerns Pseudomonas aeruginosa RDK 184 (DSM 939). Description: microbe, parasite or virus in culture. The protocol:
as §1, §2, §3, §4

Test [4] deals with Streptococcus agalactiae RDK 047 (QA-990/02). Description: microbe, parasite or virus in culture. The protocol:
as §1, §2, §3, §4

For a further test, the system named is MRSA (QA-12.1). The experiment in a line: microbe, parasite or virus in culture. The settings on record: Staphylococcus aureus, read-out: MIC MRSA (QA-12.1). As to the method:
as §1, §2, §3, §4

In the next test the test system is E. coli D22. Description: microbe, parasite or virus in culture. The conditions noted are these: Escherichia coli. The protocol: as §1, §2, §3, §4
Test [5] deals with Enterococcus faecalis DRK 057 (ATCC 29212). The experiment in a line: microbe, parasite or virus in culture. As to the method: as §1, §2, §3, §4
The test system of a further test is Klebsiella pneumoniae. The experiment in a line: microbe, parasite or virus in culture. As to the method:
as §1, §2, §3, §4

The next test has as its target T2, S. aureus DNA gyrase (Staphylococcus aureus, UniProt P20831).
T2 construct: purchased Inspiralis (Norwich, UK)
Description: DNA gyrase supercoiling inhibition assay (S. aureus). The conditions noted are these: mean of two independent measurements ± SD. In kind it is biochemical. As to the method:
We synthesized and biologically evaluated ten new compounds. We determined their inhibitory activity, expressed as IC50 values, on both Gram-positive S. aureus and Gram-negative E. coli bacterial enzymes (DNA gyrase and topo IV), respectively. The in vitro antibacterial activity, expressed as minimum inhibitory concentration (MIC), was determined against broad spectrum of bacteria, including Gram-positive (Staphylococcus aureus, methicillin-resistant Staphylococcus aureus, Streptococcus agalactiae, and Enterococcus faecalis) and Gram-negative strains (Escherichia coli, Salmonella alachua, Pseudomonas aeruginosa, and Klebsiella pneumoniae), enriched with various MRSA strains resistant to various antibiotics as well as E. coli strains with increased membrane permeability and lack of efflux pump, as well. Furthermore, the selectivity of compounds for bacterial enzyme compared to the orthologous human topoisomerase IIα was also considered. The in vitro safety profile was determined by cytotoxicity assessment on human umbilical vein endothelial cell lines (HUVEC) and HepG2 liver cancer cell lines.
Determination of DNA gyrase and topoisomerase IV inhibitory activities
To determine the IC50 values of the compounds, a Gyrase Supercoiling High Throughput Plate assay kit and a TopoIV Relaxation High Throughput Plate assay kit, commercially available from Inspiralis (Norwich, UK), were used for S. aureus and E. coli. The assays were performed on black streptavidin-coated 96-well microtiter plates (Thermo Scientific Pierce, Norwich, UK) and the wells were first […]
BSA and 0.05% [v/v] Tween-20). Biotinylated oligonucleotide diluted with the wash buffer was then immobilized in each well and the excess was removed with the wash buffer. 1.5 U of the enzyme S. aureus or E. coli DNA gyrase (topoIV) was incubated together with 0.75 μg of relaxed (supercoiled) pNO1 plasmid as substrate in the presence of 3 μl inhibitor solution in 10% DMSO and 0.008% Tween-20 at 37°C for 30 min in a final reaction volume of 30 μl in the assay buffer (S. aureus DNA gyrase: 40 mM HEPES.KOH (pH 7.6), 10 mM magnesium acetate, 10 mM DTT, 2 mM ATP, 500 mM potassium glutamate and 0.05 mg/ml albumin; E. coli DNA gyrase: 35 mM Tris.HCl (pH 7.5), 24 […]
mg/ml albumin; S. aureus topo IV: 50 mM Tris.HCl (7.5), 5 mM MgCl 2, 5 mM DTT, 1.5 mM ATP, 350 mM potassium glutamate and 0.05 mg/ml albumin; E. coli topo IV: 40 mM HEPES.KOH (pH 7.6), 100 mM potassium glutamate, 10 mM magnesium acetate, 10 mM DTT, 1 mM ATP and 50 μg/ml albumin). The reaction was stopped by adding the TF buffer (50 mM NaOAc (pH 4.7), 50 mM NaCl and 50 mM MgCl2) to allow triplex formation (biotin oligonucleotide plasmid) for another 30 min. Finally, the unbound plasmid was washed off using the TF buffer and the Promega Diamond dye was added to T10 buffer (10 mM Tris-HCl (pH 8.0), 1 mM EDTA) solution. After 15 min the solution […]
Two inhibitor concentrations of 100 and 1 μM were used for pre-screening. The IC 50 values […]
(IC50) was calculated by nonlinear regression-based fitting of the inhibition curves using the log [inhibitor] versus response-variable slope (four parameters) – symmetrical equation, in GraphPad Prism 6.0 software (GraphPad Software, CA, USA). The IC50 value represents the average of two independent measurements.
The minimum inhibitory concentrations (MICs) were determined using the broth micro-dilution method in 96-well plate format according to the Clinical and Laboratory Standards Institute

For a further test, the target named is Human topoisomerase IIα (Homo sapiens, UniProt P11388). The experiment in a line: Human topoisomerase IIα residual activity. In kind it is biochemical. The settings on record: read-out: Human topoisomerase IIα (%RA).
Chain of Human topoisomerase IIα (P11388 whole entry): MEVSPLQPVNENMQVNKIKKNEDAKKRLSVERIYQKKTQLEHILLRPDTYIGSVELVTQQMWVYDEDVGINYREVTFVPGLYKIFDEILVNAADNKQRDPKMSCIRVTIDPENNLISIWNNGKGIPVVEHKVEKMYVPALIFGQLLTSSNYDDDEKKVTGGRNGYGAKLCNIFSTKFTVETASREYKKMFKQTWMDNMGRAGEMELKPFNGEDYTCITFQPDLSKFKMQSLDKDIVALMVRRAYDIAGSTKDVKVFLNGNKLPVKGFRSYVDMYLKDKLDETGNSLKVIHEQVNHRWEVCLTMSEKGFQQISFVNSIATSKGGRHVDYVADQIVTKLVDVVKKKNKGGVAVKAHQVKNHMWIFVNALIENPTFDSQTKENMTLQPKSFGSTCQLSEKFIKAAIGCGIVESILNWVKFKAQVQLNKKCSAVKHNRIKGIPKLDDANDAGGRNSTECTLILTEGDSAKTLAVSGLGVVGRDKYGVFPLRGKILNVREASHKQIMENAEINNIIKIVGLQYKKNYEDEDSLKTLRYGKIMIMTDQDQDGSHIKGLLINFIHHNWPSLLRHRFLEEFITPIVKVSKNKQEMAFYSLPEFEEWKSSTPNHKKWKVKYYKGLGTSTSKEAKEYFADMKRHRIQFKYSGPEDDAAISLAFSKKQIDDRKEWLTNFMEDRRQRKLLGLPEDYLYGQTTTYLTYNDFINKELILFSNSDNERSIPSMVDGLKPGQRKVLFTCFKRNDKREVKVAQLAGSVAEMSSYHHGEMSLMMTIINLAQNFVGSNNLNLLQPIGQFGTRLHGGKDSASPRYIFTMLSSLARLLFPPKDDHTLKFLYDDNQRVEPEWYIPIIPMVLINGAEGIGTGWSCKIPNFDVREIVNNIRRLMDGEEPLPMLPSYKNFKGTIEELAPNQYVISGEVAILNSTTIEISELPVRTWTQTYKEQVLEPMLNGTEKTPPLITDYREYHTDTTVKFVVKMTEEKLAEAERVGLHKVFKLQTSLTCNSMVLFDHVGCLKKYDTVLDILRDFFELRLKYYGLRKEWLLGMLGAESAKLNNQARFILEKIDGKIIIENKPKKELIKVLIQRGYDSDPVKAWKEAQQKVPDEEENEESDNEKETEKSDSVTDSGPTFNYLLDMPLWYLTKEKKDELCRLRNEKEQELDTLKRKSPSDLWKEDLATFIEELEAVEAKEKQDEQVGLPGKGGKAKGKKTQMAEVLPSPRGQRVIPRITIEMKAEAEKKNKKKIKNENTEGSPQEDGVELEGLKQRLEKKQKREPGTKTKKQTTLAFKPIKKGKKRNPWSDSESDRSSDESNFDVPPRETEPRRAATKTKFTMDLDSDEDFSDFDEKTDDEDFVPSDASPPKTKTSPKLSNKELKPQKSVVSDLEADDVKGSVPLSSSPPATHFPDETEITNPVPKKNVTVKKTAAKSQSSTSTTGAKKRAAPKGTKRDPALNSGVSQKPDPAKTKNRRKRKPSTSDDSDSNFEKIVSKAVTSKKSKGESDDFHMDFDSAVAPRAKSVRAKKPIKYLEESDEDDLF

Values joined by “and” are separate entries in the source; they are usually repeats but may differ in a detail not shown here. Equal entries are not always repeated. Where two headings read alike, the source gives them in different places.

T2 sequence (P20831 whole entry, looked up): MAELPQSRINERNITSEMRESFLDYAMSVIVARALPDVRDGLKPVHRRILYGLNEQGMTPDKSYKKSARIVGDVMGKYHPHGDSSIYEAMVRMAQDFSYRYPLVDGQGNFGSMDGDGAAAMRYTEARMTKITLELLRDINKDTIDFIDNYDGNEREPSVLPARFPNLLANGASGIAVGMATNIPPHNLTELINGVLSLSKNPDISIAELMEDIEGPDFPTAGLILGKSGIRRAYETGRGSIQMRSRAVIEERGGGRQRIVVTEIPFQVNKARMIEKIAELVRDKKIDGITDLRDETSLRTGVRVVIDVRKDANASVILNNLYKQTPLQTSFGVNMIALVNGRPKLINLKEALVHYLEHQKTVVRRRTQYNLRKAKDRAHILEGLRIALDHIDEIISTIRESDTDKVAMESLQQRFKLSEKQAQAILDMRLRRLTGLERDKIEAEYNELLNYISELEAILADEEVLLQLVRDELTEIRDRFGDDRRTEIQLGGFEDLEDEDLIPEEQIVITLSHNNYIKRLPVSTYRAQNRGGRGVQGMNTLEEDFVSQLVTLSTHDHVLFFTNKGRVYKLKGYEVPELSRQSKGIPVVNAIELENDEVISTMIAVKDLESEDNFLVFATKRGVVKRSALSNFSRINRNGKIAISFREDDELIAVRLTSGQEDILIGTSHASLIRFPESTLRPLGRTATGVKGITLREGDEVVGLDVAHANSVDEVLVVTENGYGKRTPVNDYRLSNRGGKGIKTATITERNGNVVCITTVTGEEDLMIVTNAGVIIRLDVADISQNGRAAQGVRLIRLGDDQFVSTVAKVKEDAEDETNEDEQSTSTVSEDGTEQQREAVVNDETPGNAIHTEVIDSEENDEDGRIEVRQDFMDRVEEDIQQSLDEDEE
T1 sequence (Q2FYS4 whole entry, looked up): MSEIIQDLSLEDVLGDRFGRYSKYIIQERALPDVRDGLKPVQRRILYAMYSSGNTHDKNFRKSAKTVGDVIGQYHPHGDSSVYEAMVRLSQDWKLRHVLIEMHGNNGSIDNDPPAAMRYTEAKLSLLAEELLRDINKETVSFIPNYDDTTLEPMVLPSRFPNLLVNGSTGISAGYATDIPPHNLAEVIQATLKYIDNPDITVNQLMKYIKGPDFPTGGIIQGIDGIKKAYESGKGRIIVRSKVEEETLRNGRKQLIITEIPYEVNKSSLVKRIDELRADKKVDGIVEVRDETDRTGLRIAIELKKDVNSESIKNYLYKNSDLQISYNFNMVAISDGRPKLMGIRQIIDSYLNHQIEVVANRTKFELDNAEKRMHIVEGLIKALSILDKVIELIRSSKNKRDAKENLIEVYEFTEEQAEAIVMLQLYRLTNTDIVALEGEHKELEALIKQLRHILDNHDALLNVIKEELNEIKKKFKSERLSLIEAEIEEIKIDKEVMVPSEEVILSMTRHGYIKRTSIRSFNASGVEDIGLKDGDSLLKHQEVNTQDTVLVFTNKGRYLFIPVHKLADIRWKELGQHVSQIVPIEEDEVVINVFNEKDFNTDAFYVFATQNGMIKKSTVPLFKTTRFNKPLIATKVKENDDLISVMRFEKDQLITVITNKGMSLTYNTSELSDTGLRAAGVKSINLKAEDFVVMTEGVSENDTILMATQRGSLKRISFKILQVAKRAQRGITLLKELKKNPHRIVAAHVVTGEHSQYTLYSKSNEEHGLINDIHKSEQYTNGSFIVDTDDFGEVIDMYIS

For the molecule `COc1ccc2nccc(CCN3CCC(NCc4ccc(I)c(F)c4)CC3)c2n1` [Compound 6], the IC50 – broadly, the concentration that gives 50% inhibition – was determined as 90 ± 102 nM on S. aureus topoIV and 4 nM at S. aureus DNA gyrase. The MIC was 0.016 µg/mL in test [1] (read-out: MIC E. coli N43 (CGSC no. 5583)); 0.031 µM in [1] (read-out: MIC E. coli N43 (CGSC# 5583)); 3.84 µM in [2] (read-out: MIC S. alachua RDK 030c (QA-1482/04)); 2 µg/mL in [2] (read-out: MIC Salmonella alachua RDK 030c (QA-1482/04)); 0.031 µM and 0.016 µg/mL in the test with MRSA (QA-11.7); 0.015 µM and 0.008 µg/mL in the test on S. aureus (ATCC 29213). The MIC in the test on E. coli (ATCC 25922) is 0.961 µM and 0.5 µg/mL; in [3] (DSM939, read-out: MIC P. aeruginosa RDK 184 (DSM 939)), 30.7 µM; in [3] (DSM939, read-out: MIC Pseudomonas aeruginosa RDK 184 (DSM 939)), 16 µg/mL; in test [4] (read-out: MIC S. agalactiae RDK 047 (QA-990/02)), 0.48 µM; in test [4] (read-out: MIC Streptococcus agalactiae RDK 047 (QA-990/02)), 0.25 µg/mL; with MRSA (QA-12.1) it was 0.031 µM and 0.016 µg/mL. The MIC with E. coli D22 (D22, read-out: MIC E. coli D2) is 0.119 µM; in the test on E. coli D22 (D22, read-out: MIC E. coli D22), 0.062 µg/mL; in test [5] (ATCC29212, read-out: MIC E. faecalis DRK 057 (ATCC 29212)) it was 0.48 µM; in test [5] (ATCC29212, read-out: MIC Enterococcus faecalis DRK 057 (ATCC 29212)) it was 0.25 µg/mL; in the test on Klebsiella pneumoniae (read-out: MIC K. pneumoniae), 15.4 µM; with Klebsiella pneumoniae (read-out: MIC Klebsiella pneumoniae) it was 8 µg/mL. The remaining activity at 10 µM on Human topoisomerase IIα turned out to be 97.7 ± 1.31%.
